Measured values taken from patent publication US20240342128A1, “IMMUNE MEMORY INDUCTION BY PLATINUM BASED COMPOUNDS” (AKAMARA THERAPEUTICS, INC., priority 2016, published 2024).

Legend:
[1] = test system: 4T1 tumors; test: relative mRNA expression (qRT-PCR) of immune genes in harvested 4T1 tumors; type: in vivo; settings: 4T1 tumors in Balb/c mice, one cycle of treatment, FIG. 1A
Protocol: 4T1 cells were subcutaneously implanted in Balb/c mice to generate tumors. When tumors reached an average volume of 100 mm^3, they were treated with either Compound 1 or Oxaliplatin. After one cycle of treatment, following regression, tumors were harvested and a portion of the tumor from each group was used for total RNA isolation. The tumor infiltrating immune cells were evaluated for relative mRNA expression levels of immune activating and immune suppressive genes (Denkert et al., Clin Oncol. 2015; 33(9):983-91).

[2] = test system: LLC tumors; test: immunohistochemical analysis of tumor sections, murine NSCLC tumor model; type: in vivo; settings: LLC tumors in C57/BL6 mice, two cycles of treatment, FFPE sections, FIG. 1B
Protocol: Murine NSCLC tumor model was generated by subcutaneously implanting LLC cells in C57/BL6 mice. Treatment with either Compound 1 or Oxaliplatin was initiated when average tumor volume reached 100 mm^3. Following two cycles of treatment, tumors were harvested and a portion fixed in formalin. FFPE sections were generated from the fixed tumors and immunohistochemical analysis of tumor sections was carried out for both T and B-cells.

[3] = test system: T cell receptor (TCR); test: activation of TCR; settings: in comparison to Oxaliplatin, FIG. 2A
[4] = test system: CD8+ T cells in tumors; test: infiltration of cytotoxic CD8+ T-cells in treated tumors; type: in vivo; settings: FIG. 2B
[5] = test system: 4T1 cells; test: immune memory study: re-implantation of 4T1 cells; type: in vivo, Balb/c mice
Protocol: 4T1 cells were subcutaneously implanted in Balb/c mice to generate tumors. When tumors reached an average volume of 100 mm^3, they were treated with Compound 1. Two groups of Balb/c mice (non-tumor bearing) were either treated with Compound 1 or saline (designated Group 1 and 2 respectively; FIG. 3A).
Immune memory cells are poised to rapidly expand and induce effector functions upon recurrence, while existing in a functionally quiescent state. In order to check this hypothesis, we examined immune memory in Compound 1 treated tumors. […] The results also rule out the effect of any residual drug inducing tumor memory in non-tumor bearing animals.

[6] = test system: 4T1 tumors; test: tumor regression in immunocompetent versus immune-deficient mice strains; type: in vivo, mice (Balb/c, Jh−/−, SCID); settings: FIG. 4
From the text: To understand the role of immune components in tumor regression following treatment with Compound 1, tumor regression was studied in three different mice strains. These included immunocompetent mice (Balb/c); B cell-deficient mice (designated Jh^−/−) and mice lacking functional B cells and T cells (SCID). 4T1 cells were subcutaneously implanted in the three strains mentioned and when tumors reached an average volume of 100 mm^3, they were divided into two groups. One group was kept as control and the other treated with Compound 1 and the tumor volume in all the animals were recorded.

[7] = test system: 4T1 cells; test: ds-RNA detection by propidium iodide staining after DNase/RNase treatment; type: cell-based
Protocol: 4T1 cells were grown on a coverslip in RPMI media to 70-80% confluency. The cells were treated with Compound 1 or Oxaliplatin. Detection of ds-RNA was a modification of protocol described by Kantarjian et al. (Kantarjian et al., Blood. 1985 July; 66(1):39-46). Following treatment, the coverslips were washed in phosphate-buffered saline (PBS) and fixed in 70% ice-cold ethanol. Cells were then washed with saline and treated with 1 mg/mL of DNase in 0.25 mol/L sucrose, 5 mmol/L MgCl2, and 20 mmol/L Tris-HCL (pH 6.5) at 37° C. for 60 min. In addition, another set of cells, subjected to Compound 1 or Oxaliplatin treatment were treated with RNase at a concentration of 5 mg/mL at 37° C. for 60 minutes. After another wash in PBS, the coverslips were exposed to propidium iodide at a final concentration of 50 μg/ml, diluted in a solution containing 10 mmol/L Tris-HCl (pH 7.4) and 5 mmol/L MgCl2. Stained cells were kept at 4° C. prior to microscopic analysis using a NIKON epi-fluorescence microscope using excitation wavelengths of 480 nm and emission wavelengths of 590 nm.

[8] = test system: splenic B cells; test: relative mRNA expression of B cell differentiation and TLR activation genes in isolated splenic B cells; type: in vivo; settings: B cells from tumor bearing mice treated (Group 3), normalized to Group 1, FIG. 6B
Protocol: Mice splenic B cells were isolated from Group 1 and Group 3 mice, described in Example 3.
Spleen was harvested from mice (n=3) and minced into small pieces in RPMI-1640 basal media. The pieces were placed on top of a 40 mesh membrane and crushed with the back of a syringe and the single cell suspension was collected onto a 50 ml tube. The single cell suspension was washed twice with PBS to remove debris by centrifuging at 2000 rpm. Splenocytes were counted using haemocytometer and 100 million splenocytes were resuspended in 1 ml of isolation buffer (2% FBS, […] in DPBS) and transferred to a 5 ml polysterene tube. The B cells were isolated from splenocytes using the EasySep Stem Cell B cell isolation kit as per manufacturers protocol. Ten million B cells were used for RNA isolation, followed by relative mRNA expression levels of genes involved in B cell differentiation and TLR activation were evaluated.

[9] = test system: splenic B cells; test: splenic B cells cultured with treatment conditioned media (TCM) from treated 4T1 cells, relative mRNA expression; type: cell-based, mice
Protocol: 4T1 cells were seeded in cell culture dishes in RPMI-1640 media containing 10% FBS. The cells were treated with Oxaliplatin and Compound 1 when they reached 60% confluence. Following a transient treatment of 6 hours, the media was removed and supplemented with fresh culture media. Cells were incubated at 37° C. for 24 hours. After 24 hours, the treatment conditioned media (TCM) was collected from each treatment and divided into two parts. One part was passed through 0.1 micron PES filters to obtain tumor conditioned media free of cell debris, with nucleic acids intact; while the other was passed through 0.1 micron Nylon membrane filters, where the nucleic acids would stick and get removed. The filtration process through Nylon membrane was repeated twice to remove all nucleic acids from the TCM. The harvested TCMs were used immediately for conditioning of B cells, isolated from naïve mice splenocytes using the EasySep Stem Cell B cell isolation kit as per manufacturers protocol. The B cells were incubated with conditioned media and harvested after 24 hours of incubation. RNA was isolated from the B cells and used for relative mRNA expression level evaluation of genes involved in B cell differentiation and TLR activation.

## CC(C)CCC[C@@H](C)[C@H]1CCC2C3CC=C4C[C@@H](OCCN(CC(=O)[O-])CC(=O)[O][Pt+]5[NH][C@@H]6CCCC[C@H]6[NH]5)CC[C@]4(C)C3CC[C@@]21C (stereo partly drawn) [Compound 1]
[1]
  IGKC mRNA levels in tumors: significant increase in IGKC mRNA levels
[2]
  B220 level by immunohistochemistry: elevated levels
  IGKC level by immunohistochemistry: elevated levels
[3]
  activation of TCR: substantial activation of TCR
[4]
  infiltration of cytotoxic T cells (CD8+ T cells) in tumors: infiltration of cytotoxic T cells
[5]; Group 1: non-tumor bearing Balb/c mice treated, similar to saline treated mice (Group 2), FIG. 3C
  tumor growth after implantation of 4T1 cells in treated non-tumor bearing mice: led to the growth of tumors
[5]; Group 3: animals that had previously undergone tumor regression with treatment, FIG. 3B
  tumor growth upon re-implantation of cancer cells (immune memory): no tumor growth was observed upon re-implantation of cancer cells
[6]; 4T1 tumors in B cell-deficient (Jh−/−) and SCID mice, growth similar to control mice
  tumor regression in mice lacking immune cells: Tumors do not regress
[6]; 4T1 tumors in Balb/c mice
  tumor regression in immunocompetent mice: causes tumor regression only in immunocompetent mice
[7]; DNase treated samples, propidium iodide stain, FIG. 5C
  relative fluorescent intensity per field (dsRNA amount): enhancement of relative fluorescent intensity per field
[7]; compared to Oxaliplatin
  stability of RNA adducts: more stable RNA adducts
[8]
  IGKC mRNA levels in splenic B cells: significant increase in IGKC mRNA levels
  expression of TLRs and CD80 in splenic B cells: elevated expression of TLRs and CD80
[9]; TCM with nucleic acids intact (PES filter), 24 hours incubation, FIG. 7B
  B cell differentiation markers and TLR activation markers (relative mRNA): substantially increased
[9]; nucleic acids removed from TCM (Nylon membrane filter), FIG. 7C
  relative level of B cell differentiation and TLR activation markers, nucleic acid depleted TCM: substantially reduced
